Results reported in patent US11173145B2, “Compounds useful as inhibitors of indoleamine 2,3-dioxygenase and/or tryptophan dioxygenase” (Board of Regents, The University of Texas System, priority 2017, dated 2021).

Each compound was assayed against T1, IDO1 (Homo sapiens, UniProt P14902) (assay: IDO1 cell-based assay (HeLa cells, IFNgamma-induced, N-formylkynurenine/L-tryptophan by RFMS)). Details: 10 ng/mL IFNgamma, 24 hours.
T1 construct: endogenous in cells; host or cells: HeLa cells (ATCC), IFNgamma-induced
Protocol: HeLa cells were obtained from the American Type Culture Collection (ATCC) and maintained in DMEM media containing 10% FBS. Cells (7,000/well) were seeded onto a 384 well plate in 50 μL of media and incubated at 37° C., 5% CO2 overnight. Cell media was aspirated, fresh media containing 10 ng/mL IFNgamma was added, and cells were incubated in absence or presence of various concentrations of test compound (final 0.5% DMSO) for 24 hours. Aliquots of the cell conditioned media were removed from the cell plate, and mixed with an equal volume of 200 mM ZnSO4 to precipitate media containing proteins. Two volumes of acetonitrile were added, mixed, and samples were then centrifuged at 2250G for 20 minutes at 4° C. Aliquots of the supernatant were diluted 1:10 in 0.1% formic acid containing 3 μM of deuterated Tryptophan as an internal standard.
Samples were analyzed via RFMS to quantify N-Formyl Kynurenine (AUC) and L-tryptophan (AUC). A C18 cartridge was used with mobile phases of 0.1% Formic Acid and 80% ACN/0.1% Formic Acid under isocratic conditions. Dose-response curves were analyzed using IC50 regression curve fitting (GeneData Screener). […] Cell viability was also assessed using the Cell Titer Glo Kit (Promega) following manufacturer recommendation.

T1 sequence (P14902 whole entry): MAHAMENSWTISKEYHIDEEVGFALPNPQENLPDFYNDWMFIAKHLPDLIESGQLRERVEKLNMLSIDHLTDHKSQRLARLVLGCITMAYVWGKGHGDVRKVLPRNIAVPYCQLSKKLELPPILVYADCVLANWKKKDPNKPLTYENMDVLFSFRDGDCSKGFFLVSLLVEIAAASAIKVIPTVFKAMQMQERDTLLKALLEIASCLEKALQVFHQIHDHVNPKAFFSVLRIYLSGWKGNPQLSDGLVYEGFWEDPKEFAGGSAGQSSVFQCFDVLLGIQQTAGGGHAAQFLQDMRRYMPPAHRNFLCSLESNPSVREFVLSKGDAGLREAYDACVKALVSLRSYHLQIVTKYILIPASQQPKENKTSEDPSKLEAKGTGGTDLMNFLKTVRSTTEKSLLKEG

| Structure (SMILES) | IC50 [µM] |
| --- | --- |
| COC(=O)C(NC(=O)c1ccc(Cl)cc1)[C@H]1[C@@H]2C[C@@H](n3cc(C4CC4)nn3)C[C@@H]21 (stereo partly drawn) [Compound 169, methyl 2-(4-chlorobenzamido)-2-((1R,3s,5S,6r)-3-(4-cyclopropyl-1H-1,2,3-triazol-1-yl)bicyclo[3.1.0]hexan-6-yl)acetate] | 0.2 to 2 |
| O=C(NC[C@H]1[C@H]2C[C@H](Oc3cc(C(F)(F)F)nc4ccc(F)cc34)C[C@@H]12)c1ccc(Cl)cc1 [Compound 24, 4-chloro-N-(((1R,3s,5S,6s)-3-((6-fluoro-2-(trifluoromethyl)quinolin-4-yl)oxy)bicyclo[3.1.0]hexan-6-yl)methyl)benzamide] | 0.2 to 2 |
| O=S(=O)(Cc1ccc(Br)cc1)NC1C2CC(Oc3ccnc4ccccc34)CC21 (centres unmarked) [Compound 27, 1-(4-bromophenyl)-N-(3-(quinolin-4-yloxy)bicyclo[3.1.0]hexan-6-yl)methanesulfonamide] | > 5 |
| CCC(NC(=O)c1ccc(Cl)cc1)C1[C@H]2CC(Oc3cnnc4ccccc34)C[C@@H]12 (stereo partly drawn) [Compound 46, 4-chloro-N-(1-((1R,3s,5S,6r)-3-(cinnolin-4-yloxy)bicyclo[3.1.0]hexan-6-yl)propyl)benzamide] | < 0.2 |
| CC[C@@H](NC(=O)c1ccc(Cl)cc1)[C@H]1[C@@H]2C[C@@H](n3cc(C(=O)O)cn3)C[C@@H]21 [Compound 328, 1-((1R,3S,5S,6r)-6-((R)-1-(4-chlorobenzamido)propyl)bicyclo[3.1.0]hexan-3-yl)-1H-pyrazole-4-carboxylic acid] | 0.2 to 2 |
| CC[C@@H](NC(=O)c1ccc(Cl)cc1)[C@H]1[C@@H]2C[C@@H](C(CO)CO)C[C@@H]21 [Compound 291, 4-chloro-N—((R)-1-((1R,3S,5S,6r)-3-(1,3-dihydroxypropan-2-yl)bicyclo[3.1.0]hexan-6-yl)propyl)benzamide] | 0.2 to 2 |
| CC[C@@H](NC(=O)C1(C(F)(F)F)CC1)[C@H]1[C@@H]2C[C@@H](n3cnc4cc(F)c(F)cc43)C[C@@H]21 [Compound 352, N-((R)-1-((1R,3S,5S,6r)-3-(5,6-difluoro-1H-benzo[d]imidazol-1-yl)bicyclo[3.1.0]hexan-6-yl)propyl)-1-(trifluoromethyl)cyclopropane-1-carboxamide] | 0.2 to 2 |
| O=C(Cc1ccc(Cl)cc1)NC1[C@H]2CC(Oc3cnnc4ccccc34)C[C@@H]12 (stereo partly drawn) [Compound 79, 2-(4-chlorophenyl)-N-((1R,3s,5S,6r)-3-(cinnolin-4-yloxy)bicyclo[3.1.0]hexan-6-yl)acetamide] | 0.2 to 2 |
| CCC(NC(=O)c1ccc(Cl)cc1)[C@H]1[C@@H]2C[C@@H](N3C(=O)C(=O)c4ccccc43)C[C@@H]21 (stereo partly drawn) [Compound 114, 4-chloro-N-(1-((1R,3s,5S,6r)-3-(2,3-dioxoindolin-1-yl)bicyclo[3.1.0]hexan-6-yl)propyl)benzamide] | 0.2 to 2 |
| O=C(NC[C@@H]1[C@H]2C[C@H](n3cnc4cc(F)c(F)cc43)C[C@@H]12)c1cccc(Cl)c1 [Compound 316, 3-chloro-N-(((1R,3s,5S,6r)-3-(5,6-difluoro-1H-benzo[d]imidazol-1-yl)bicyclo[3.1.0]hexan-6-yl)methyl)benzamide] | 0.2 to 2 |
| CC[C@@H](NC(=O)N1CCC(F)(F)CC1)[C@H]1[C@@H]2C[C@@H](n3cnc4cc(F)c(F)cc43)C[C@@H]21 [Compound 355, N-((R)-1-((1R,3S,5S,6r)-3-(5,6-difluoro-1H-benzo[d]imidazol-1-yl)bicyclo[3.1.0]hexan-6-yl)propyl)-4,4-difluoropiperidine-1-carboxamide] | < 0.2 |
| CCC(NC(=O)c1ccc(Cl)cc1)[C@H]1[C@@H]2C[C@@H](Oc3ccnc(C)c3)C[C@@H]21 (stereo partly drawn) [Compound 15, 4-chloro-N-(1-((1R,3s,5S,6r)-3-((2-methylpyridin-4-yl)oxy)bicyclo[3.1.0]hexan-6-yl)propyl)benzamide] | < 0.2 |
| CCC(NC(=O)c1ccc(C#N)cn1)C1C2CC(n3cnc4ccc(F)cc4c3=O)CC21 [Compound 76, 5-cyano-N-(1-((1R,3s,5S,6r)-3-(6-fluoro-4-oxoquinazolin-3(4H)-yl)bicyclo[3.1.0]hexan-6-yl)propyl)picolinamide] | 0.2 to 2 |
| CC[C@@H](NC(=O)c1ccc(Cl)cc1)[C@H]1[C@@H]2C[C@@H](n3cc(C4CC4)cn3)C[C@@H]21 [Compound 348, 4-chloro-N-((R)-1-((1R,3S,5S,6r)-3-(4-cyclopropyl-1H-pyrazol-1-yl)bicyclo[3.1.0]hexan-6-yl)propyl)benzamide] | < 0.2 |

More lines, now with the values ahead:

| IC50 [µM] | Structure (SMILES) |
| --- | --- |
| < 0.2 | CCC(NC(=O)c1ccc(Cl)cc1)[C@H]1[C@@H]2C[C@@H](n3ncc4ccncc43)C[C@@H]21 (stereo partly drawn) [Compound 174, N-(1-((1R,3s,5S,6r)-3-(1H-pyrazolo[3,4-c]pyridin-1-yl)bicyclo[3.1.0]hexan-6-yl)propyl)-4-chlorobenzamide] |
| < 0.2 | CCC(NC(=O)c1ccc(OC)nc1)C1C2CC(Oc3ncnc4ccc(F)cc34)CC21 [Compound 78, N-(1-((1R,3s,5S,6r)-3-((6-fluoroquinazolin-4-yl)oxy)bicyclo[3.1.0]hexan-6-yl)propyl)-6-methoxynicotinamide] |
| < 0.2 | CC(C(=O)Nc1ccc(Cl)cc1)[C@H]1[C@@H]2C[C@@H](n3cnc4cc(F)c(F)cc43)C[C@@H]21 (stereo partly drawn) [Compound 281, N-(4-chlorophenyl)-2-((1R,3s, 5S, 6r)-3-(5,6-difluoro-1H-benzo[d]imidazol-1-yl)bicyclo[3.1.0]hexan-6-yl)propanamide] |
| < 0.2 | CC[C@@H](NC(=O)Nc1ccc(Cl)c(F)c1)[C@H]1[C@@H]2C[C@@H](n3cnc4cc(F)c(F)cc43)C[C@@H]21 [Compound 349, 1-(4-chloro-3-fluorophenyl)-3-((R)-1-((1R,3S,5S,6r)-3-(5,6-difluoro-1H-benzo[d]imidazol-1-yl)bicyclo[3.1.0]hexan-6-yl)propyl)urea] |
| < 0.2 | CC[C@@H](NC(=O)c1ccc(Cl)cc1)[C@H]1[C@@H]2C[C@@H](NC(=O)c3ncccc3F)C[C@@H]21 [Compound 327, N-((1R,3S,5S,6r)-6-((R)-1-(4-chlorobenzamido)propyl)bicyclo[3.1.0]hexan-3-yl)-3-fluoropicolinamide] |
| < 0.2 | CCC(NC(=O)c1ccc(Cl)cc1)[C@H]1[C@@H]2C[C@@H](n3nc4ccccc4n3)C[C@@H]21 (stereo partly drawn) [Compound 100, N-(1-((1R,3s,5S,6r)-3-(2H-benzo[d][1,2,3]triazol-2-yl)bicyclo[3.1.0]hexan-6-yl)propyl)-4-chlorobenzamide] |
| < 0.2 | CCC(NC(=O)c1ccc(Cl)cc1)[C@H]1[C@@H]2C[C@@H](Oc3ncccc3F)C[C@@H]21 (stereo partly drawn) [Compound 39, 4-chloro-N-(1-((1R,3s,5S,6r)-3-((3-fluoropyridin-2-yl)oxy)bicyclo[3.1.0]hexan-6-yl)propyl)benzamide] |
| < 0.2 | CCC(NC(=O)c1ccc(Cl)cc1)[C@H]1[C@@H]2C[C@@H](Nc3ccc(Cl)cc3[N+](=O)[O-])C[C@@H]21 (stereo partly drawn) [Compound 270, 4-chloro-N-(1-((1R,3s,5S,6r)-3-((4-chloro-2-nitrophenyl)amino)bicyclo[3.1.0]hexan-6-yl)propyl)benzamide] |
| < 0.2 | CCC(NC(=O)c1ccc(Cl)cn1)C1C2CC(n3cnc4ccc(F)cc4c3=O)CC21 [Compound 75, 5-chloro-N-(1-((1R,3s,5S,6r)-3-(6-fluoro-4-oxoquinazolin-3(4H)-yl)bicyclo[3.1.0]hexan-6-yl)propyl)picolinamide] |
| < 0.2 | O=C(NC(CCO)[C@H]1[C@@H]2C[C@@H](n3ncc(=O)c4ccccc43)C[C@@H]21)c1ccc(Cl)cc1 (stereo partly drawn) [Compound 140, 4-chloro-N-(3-hydroxy-1-((1R,3s, 5S, 6r)-3-(4-oxocinnolin-1(4H)-yl)bicyclo[3.1.0]hexan-6-yl)propyl)benzamide] |
| < 0.2 | C[C@H](C(=O)Nc1ccc(Cl)cc1)[C@H]1[C@@H]2C[C@@H](n3cnc4cc(F)c(F)cc43)C[C@@H]21 [Compound 299, (S)-N-(4-chlorophenyl)-2-((1R,3R,5S,6r)-3-(5,6-difluoro-1H-benzo[d]imidazol-1-yl)bicyclo[3.1.0]hexan-6-yl)propanamide] |
| < 0.2 | CCC(NC(=O)c1ccc(Cl)cc1)[C@H]1[C@@H]2C[C@@H](Oc3ncccc3C)C[C@@H]21 (stereo partly drawn) [Compound 41, 4-chloro-N-(1-((1R,3s,5S,6r)-3-((3-methylpyridin-2-yl)oxy)bicyclo[3.1.0]hexan-6-yl)propyl)benzamide] |
| < 0.2 | CC[C@@H](NC(=O)c1ccc(Cl)cc1)[C@H]1[C@@H]2C[C@@H](n3nccc3C3CC3)C[C@@H]21 [Compound 342, 4-chloro-N-((R)-1-((1R,3S,5S,6r)-3-(5-cyclopropyl-1H-pyrazol-1-yl)bicyclo[3.1.0]hexan-6-yl)propyl)benzamide] |
| < 0.2 | CCC(NC(=O)c1ccc(Cl)cc1)[C@H]1[C@@H]2C[C@H](Oc3ccc4nccc(Cl)c4c3)C[C@@H]21 (stereo partly drawn) [Compound 127, 4-chloro-N-(1-((1R,3r,5S,6r)-3-((4-chloroquinolin-6-yl)oxy)bicyclo[3.1.0]hexan-6-yl)propyl)benzamide] |
| < 0.2 | CCC(NC(=O)c1ccc(Cl)cc1)[C@H]1[C@@H]2C[C@@H](Oc3cc(=O)n(C)c4ccccc34)C[C@@H]21 (stereo partly drawn) [Compound 50, 4-chloro-N-(1-((1R,3s,5S,6r)-3-((1-methyl-2-oxo-1,2-dihydroquinolin-4-yl)oxy)bicyclo[3.1.0]hexan-6-yl)propyl)benzamide] |
